Data published in US12461089B2, “Olfactory receptor involved in the perception of musk fragrance and the use thereof” (ChemoSensoryX Biosciences SA, priority 2017, dated 2025).
Changes are numbered by the printed parent chain. Read-outs that look alike come from different tables or passages of the source.

Experiments:
Format in all cases: cell-based
OR5A2_variant 1 [1] = biological target: T1, OR5A2_variant 1 (Homo sapiens, UniProt Q8NGI9); assay: Luciferase reporter concentration-response analysis on OR5A2_variant 1; settings: for activation of OR5A2 (OR5A2_variant 1), concentration-response: CRE-luciferase, semi-logarithmic serial dilutions, empty vector pEFIBRHO as control
T1 construct: expressed in transfected cells; host or cells: HEK293T-RTP1A1/RTP2
T1 sequence (Q8NGI9 1-324): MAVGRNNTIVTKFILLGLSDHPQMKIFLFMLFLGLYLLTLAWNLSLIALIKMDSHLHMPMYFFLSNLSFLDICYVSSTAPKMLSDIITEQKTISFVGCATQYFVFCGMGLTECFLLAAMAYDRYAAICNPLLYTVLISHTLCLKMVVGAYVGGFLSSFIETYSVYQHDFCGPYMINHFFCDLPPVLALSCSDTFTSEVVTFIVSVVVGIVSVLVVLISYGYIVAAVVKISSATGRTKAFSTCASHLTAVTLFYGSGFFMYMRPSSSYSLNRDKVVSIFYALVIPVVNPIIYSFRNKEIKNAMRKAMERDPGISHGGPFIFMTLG
Method: (§1) HEK293T-RTP1A1/RTP2 cells were maintained in minimal essential medium (EMEM, Lonza) containing 10% fetal bovine serum (M10). These cells were generated by transfecting HEK293T with an expression vector containing the sequences of the chaperone proteins RTP1A1 and RTP2 and a resistance gene to puromycin, using Lipofectamine 2000.
(§2) Odorant molecules were diluted at a concentration of 1 mole/liter (M) into dimethyl sulfoxide (DMSO) to generate stock solutions.
(§3) For concentration-response analysis, serial dilutions of the tested molecules were prepared from stock solutions in EMEM plated into 96-well plates.
(§4) For the initial deorphanisation screening and dose-response analysis, a Luciferase-based gene reporter assay (Promega, Leiden, The Nederlands) was used. Briefly, cells were platted on Poly-D-lysine-coated 96-well and transfected with a plasmid containing the CRE-luciferase and a plasmid containing the olfactory receptor. Sixteen hours after transfection, the culture medium was replaced by serum-free EMEM containing the tested compounds at a determined concentration. After four hours of incubation at 37° C. degree, cells were lysed and processed for luminescence measurement. Luminescene emission was recorded. Results were expressed as luciferase activity (Relative […] Unit (RLU)) or as percentage of the response induced by 10 μM of the adenylate cyclase activator Forskolin. An empty plasmid is used as negative control.
(§5) 35 musk compounds from the four structurally different chemical groups previously described were tested in concentration-response analyses (Table 2). In each experiment, an empty vector was used as negative control (pEFIBRHO). […] Full results including the calculated EC50 are given in Table 2; “non active” represent negative experiments, no activation after testing.

OR5A2_variant 1 [2] = biological target: T1, OR5A2_variant 1; assay: Luciferase reporter deorphanisation screening of odorant libraries (891 compounds) on OR5A2; settings: HEK293T-RTP1A1/RTP2 cells; each compound at 1 mM, 316 μM, 100 μM; hit = luciferase activity >= median + 2 standard deviations
Method: as §1, §2
For screening experiments, stock solutions of odorant molecules were diluted in EMEM disposed in 96-well plates.
as §4

OR5AN1 = biological target: T2, OR5AN1 (Homo sapiens, UniProt Q8NGI8, E89G); assay: Luciferase reporter concentration-response analysis on OR5AN1
T2 construct: expressed in transfected cells; host or cells: HEK293T-RTP1A1/RTP2
T2 sequence (Q8NGI8 1-311 E89G): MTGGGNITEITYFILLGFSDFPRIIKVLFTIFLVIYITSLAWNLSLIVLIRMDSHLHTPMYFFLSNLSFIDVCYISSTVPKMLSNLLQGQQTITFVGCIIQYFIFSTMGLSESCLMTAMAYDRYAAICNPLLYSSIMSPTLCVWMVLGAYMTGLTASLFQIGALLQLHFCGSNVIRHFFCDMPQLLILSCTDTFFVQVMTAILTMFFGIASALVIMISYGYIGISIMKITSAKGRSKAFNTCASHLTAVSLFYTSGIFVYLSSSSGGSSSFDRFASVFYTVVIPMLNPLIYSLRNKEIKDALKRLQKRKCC
Method: as §1, with “2000. The recombinant cell population, used in these experiments, was selected by adding 10 μg/ml of puromycin into the culture medium and subsequently subcloned (WO 2014/191047 A1).” for “2000.”
as §2, §3, §4
In these analyses we also included ORs previously described as musk-specific receptors OR5AN1 (SEQ ID n° 7) (WO 2015/020158 A1, Shirasu et al. 2014 Neuron 81, 165-78, Sato-Akuhara N et al. 2016 J Neurosci. 36(16), 4482-91) and OR11A1 (SEQ ID n° 8) (WO 2016/201152 A1). […] Therefore, OR5A1 was included in the analyses. 35 musk compounds from the four structurally different chemical groups previously described were tested in concentration-response analyses (Table 2). In each experiment, an empty vector was used as negative control (pEFIBRHO). […] Full results including the calculated EC50 are given in Table 2; “non active” represent negative experiments, no activation after testing. […]

OR2A5 = biological target: T3, OR2A5 (Homo sapiens, UniProt Q96R48, A202S/A255T/I126V); assay: Luciferase reporter concentration-response analysis on OR2A5; settings: CRE-luciferase
T3 construct: expressed in transfected cells; host or cells: HEK293T-RTP1A1/RTP2
T3 sequence (Q96R48 1-311 I126V/A202S/A255T): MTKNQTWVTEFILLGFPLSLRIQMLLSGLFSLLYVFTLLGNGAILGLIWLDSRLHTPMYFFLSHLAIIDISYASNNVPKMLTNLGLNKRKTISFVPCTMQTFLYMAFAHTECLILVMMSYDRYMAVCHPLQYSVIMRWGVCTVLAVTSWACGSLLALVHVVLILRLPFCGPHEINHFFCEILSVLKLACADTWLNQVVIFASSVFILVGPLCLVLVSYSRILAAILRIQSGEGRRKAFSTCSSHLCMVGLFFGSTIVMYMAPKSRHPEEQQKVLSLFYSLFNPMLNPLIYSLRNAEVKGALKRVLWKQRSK
Method: as §1, with “2000. The recombinant cell population, used in these experiments, was selected by adding 10 μg/ml of puromycin into the culture medium and subsequently subcloned (WO 2014/191047 A1).” for “2000.”
as §2, §3, §4
In 1998, Krautwurst and collaborators have provided a model system for the study of ligand specificity and structure-function relationships for olfactory receptors (Krautwurst et al., 1998 Cell 95, 917-26). […] Based on their publication, a chimeric OR5A2_variant 1 olfactory receptor was created containing the TM2-TM7 amino acid sequence of OR5A2_variant 1 flanked by the N-teminal and C-terminal sequence of the olfactory receptor OR2A5 (cf. SEQ ID NO: 12). This chimeric OR5A2_variant 1 receptor shared 86 percent identity with the native OR5A2_variant 1 receptor (FIG. 6A and SEQ ID NO: 10).
(§6) To test if the amino acids substitution could impact the musk sensitivity, and specificity and to validate the Krautwurst's model, luciferase assays were performed as described previously after transfection of the chimeric OR5A2_variant 1. Cells were treated with semi-logarithmic serial dilutions of musk compounds from the four structurally different groups described earlier.

OR5A2_variant 2 = biological target: T4, OR5A2_variant 2 (Homo sapiens, UniProt Q8NGI9, P172L); assay: Luciferase reporter concentration-response analysis on haplotype OR5A2_variant 2 (P172L); settings: CRE-luciferase; empty vector pEFIBRHO as control
T4 construct: (P172L, OR5A2_variant 2); expressed in transfected cells; host or cells: HEK293T-RTP1A1/RTP2
T4 sequence (Q8NGI9 1-324 P172L): T1 sequence (Q8NGI9 1-324) with P172L
Method: as §1, §2, §3, §4
OR genes are highly variable, with many alleles resulting in differences in smell perception from person to person. These differences can be attributed to genetic variations like, for example, nucleotide polymorphisms. […] Amino acids alignment of the 2 haplotypes are represented in FIG. 4.
To test if the substitution could impact the musk sensitivity, luciferase assays were performed as described previously after transfection of both OR5A2 variants. Cells were treated with semi-logarithmic serial dilutions of musk compounds from the four structurally different groups described earlier. In each experiment, an empty vector was used as negative control (pEFIBRHO).

chimeric OR5A2_variant 1 = biological target: T5, chimeric OR5A2_variant 1 (Homo sapiens, UniProt Q8NGI9, F293L/H55R/I289L/M58T); assay: Luciferase reporter concentration-response analysis on chimeric OR5A2_variant 1; settings: CRE-luciferase, empty vector pEFIBRHO as control
T5 construct: expressed in transfected cells; host or cells: HEK293T-RTP1A1/RTP2
T5 sequence (Q8NGI9 with tags, fused parts or gaps H55R/M58T/I289L/F293L): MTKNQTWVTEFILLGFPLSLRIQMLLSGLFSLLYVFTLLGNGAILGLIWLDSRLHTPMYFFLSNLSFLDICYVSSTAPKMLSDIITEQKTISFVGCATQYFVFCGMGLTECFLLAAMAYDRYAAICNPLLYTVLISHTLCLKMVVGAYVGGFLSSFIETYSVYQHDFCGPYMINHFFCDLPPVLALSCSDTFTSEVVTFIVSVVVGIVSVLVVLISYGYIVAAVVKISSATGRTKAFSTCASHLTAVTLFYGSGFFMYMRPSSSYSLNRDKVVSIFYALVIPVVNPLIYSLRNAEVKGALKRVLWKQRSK
Method: as §1, §2, §3, §4, §6
In each experiment, an empty vector was used as negative control (pEFIBRHO).

OR11A1 = biological target: T6, OR11A1 (Homo sapiens, UniProt Q9GZK7); assay: Luciferase reporter concentration-response analysis on OR11A1
T6 construct: expressed in transfected cells; host or cells: HEK293T-RTP1A1/RTP2
T6 sequence (Q9GZK7 1-315): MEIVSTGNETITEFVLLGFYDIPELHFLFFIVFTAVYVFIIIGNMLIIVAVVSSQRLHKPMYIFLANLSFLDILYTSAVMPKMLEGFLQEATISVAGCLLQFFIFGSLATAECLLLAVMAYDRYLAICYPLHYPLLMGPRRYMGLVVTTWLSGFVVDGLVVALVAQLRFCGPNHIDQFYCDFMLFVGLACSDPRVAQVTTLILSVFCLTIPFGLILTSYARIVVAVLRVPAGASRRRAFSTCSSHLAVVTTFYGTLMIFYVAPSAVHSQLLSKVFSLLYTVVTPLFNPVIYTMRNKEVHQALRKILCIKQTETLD
Method: as §1, §2, §3, §4, §5
These compounds were tested in concentration-response analysis in luciferase assays, as described previously. In each experiment, an empty vector was used as negative control (pEFIBRHO).

OR5A1 = biological target: T7, OR5A1 (Homo sapiens, UniProt Q8NGJ0); assay: Luciferase reporter concentration-response analysis on OR5A1; settings: CRE-luciferase; empty vector pEFIBRHO as control
T7 construct: expressed in transfected cells; host or cells: HEK293T-RTP1A1/RTP2
T7 sequence (Q8NGJ0 1-315): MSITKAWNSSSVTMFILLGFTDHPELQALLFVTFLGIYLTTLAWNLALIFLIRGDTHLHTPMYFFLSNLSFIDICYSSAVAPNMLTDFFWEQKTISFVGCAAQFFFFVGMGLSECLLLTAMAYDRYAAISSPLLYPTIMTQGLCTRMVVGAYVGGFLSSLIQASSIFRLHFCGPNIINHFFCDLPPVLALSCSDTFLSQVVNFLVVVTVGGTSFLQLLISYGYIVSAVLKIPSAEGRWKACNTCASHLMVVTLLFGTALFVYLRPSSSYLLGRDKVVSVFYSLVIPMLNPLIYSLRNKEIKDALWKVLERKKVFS
Method: as §1, with “2000. The recombinant cell population, used in these experiments, was selected by adding 10 μg/ml of puromycin into the culture medium and subsequently subcloned (WO 2014/191047 A1).” for “2000.”
as §2, §3
as §4, with “Briefly, cells were platted on Poly-D-lysine-coated 96-well and transfected with a plasmid containing the CRE-luciferase and a plasmid containing the olfactory receptor.” left out, “An empty plasmid is used as negative control.” left out

[3] = concentration-response analysis, luciferase reporter, values given as negative (log) numbers, read-out: calculated EC50, OR5A2 (converted)
[4] = CRE-luciferase, empty vector pEFIBRHO as control

SMILES | EC50 (OR5A2_variant 1 [1]; [3]) [µM] | response of the OR of the invention (luciferase activity, hit) in library screening (OR5A2_variant 1 [2]) | activation of OR5A2 (OR5A2_variant 1), concentration-response (OR5A2_variant 1 [1]) | activation of OR2A5, concentration-response (OR2A5) | activation of OR5A2_variant 2 (P172L), concentration-response (OR5A2_variant 2) | activation of chimeric OR5A2_variant 1, concentration-response (chimeric OR5A2_variant 1) | also measured
O=C1CCCCCCCCCCCC(=O)OCCO1 [Ethylene Brassylate] | 49 | respond specifically and exclusively |  |  |  |  | EC50 (OR5AN1; concentration-response analysis, luciferase reporter, values given as negative (log) numbers, Non Active = no activation after testing, read-out: calculated EC50, OR5AN1 (converted)): 66.1 µM
CC(OC(C)(C)COC(=O)C1CC1)C1CCCC(C)(C)C1 (stereo not shown) [Serenolide] |  | respond specifically and exclusively | shows dose response curves | but not the OR2A5 | not activated | shows dose response curves | EC50 (OR5A2_variant 1 [1]): 21.9 µM
C[C@H]1CC(C)(C)C2=C(C[C@@]3(C)O[C@H]3C2)C1(C)C [malaxone] |  | respond specifically and exclusively |  |  |  |  | 
CC(=O)/C=C/C1=C(C)CCCC1(C)C [Beta-ionone] |  |  | stimulated neither |  |  | not able to activate | activation of OR11A1, concentration-response (OR11A1; [4]): able to activate OR5A1 only; activation of OR5A1, concentration-response (OR5A1): able to activate OR5A1 only; activation of chimeric OR5A2_variant 1, concentration-response (chimeric OR5A2_variant 1; listed as beta-ionone): not activated; activation of OR5AN1, concentration-response (OR5AN1; [4]): stimulated neither
CC1C(C)(C)C2=C(C(=O)CCC2)C1(C)C (stereo not shown) [Cashmeran] | 17.8 |  | shows dose response curves | but not the OR2A5 | not activated | shows dose response curves | EC50 (OR11A1; concentration-response analysis, luciferase reporter, values given as negative (log) numbers, Non Active = no activation after testing, read-out: calculated EC50, OR11A1 (converted)): 21.4 µM
